Laboratory results reported in patent publication US11987588B2, “Modulators of the beta-3 adrenergic receptor useful for the treatment or prevention of heart failure and disorders related thereto” (Arena Pharmaceuticals, Inc., priority 2017, dated 2024).

Target: Beta-3 Adrenergic Receptor (Homo sapiens (Human), UniProt P13945)
Test: Homogeneous Time-Resolved Fluorescence (HTRF) cAMP antagonist assay, IC50 determination
Assay type: cell-based
Conditions: CHO-K1 cells stably expressing recombinant receptor, isoproterenol at EC90
Summary of the method: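 In this functional readout, recombinant CHO-K1 cells received compound, then isoproterenol at its EC90. After 1 h at room temperature, cAMP levels were determined by HTRF using an on-plate standard curve, and IC50 values were fitted.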

Sequence of Beta-3 Adrenergic Receptor (P13945 whole entry, species assumed): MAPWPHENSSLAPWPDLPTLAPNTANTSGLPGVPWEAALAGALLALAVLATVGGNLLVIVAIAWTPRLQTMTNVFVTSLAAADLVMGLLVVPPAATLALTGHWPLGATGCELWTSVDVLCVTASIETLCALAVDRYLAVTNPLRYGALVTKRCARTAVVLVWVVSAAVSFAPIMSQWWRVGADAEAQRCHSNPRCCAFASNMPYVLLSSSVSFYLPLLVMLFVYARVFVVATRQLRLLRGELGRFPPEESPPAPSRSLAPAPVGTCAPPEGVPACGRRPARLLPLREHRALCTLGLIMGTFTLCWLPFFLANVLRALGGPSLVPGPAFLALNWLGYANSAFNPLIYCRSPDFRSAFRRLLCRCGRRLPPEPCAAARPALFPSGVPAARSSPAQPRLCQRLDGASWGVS

IC50 [nM] | Structure (SMILES)
25.3 | CCOc1nc2c(cc1S(=O)(=O)N1CCC3(CC1)CC(NC[C@H](O)COc1cccc(S(=O)(=O)NC)c1)CO3)N(C)CCO2 (stereo partly drawn) [Compound 401, 3-((2S)-3-(8-(6-ethoxy-1-methyl-2,3-dihydro-1H-pyrido[2,3-b][1,4]oxazin-7-ylsulfonyl)-1-oxa-8-azaspiro[4.5]decan-3-ylamino)-2-hydroxypropoxy)-N-methylbenzenesulfonamide]
716 | CN(C)CCCNS(=O)(=O)c1cccc(OC[C@@H](O)CNC2COC3(CCN(S(=O)(=O)c4ccc5c(c4)CCCC5)CC3)C2)c1 (stereo partly drawn) [Compound 314, N-(3-(dimethylamino)propyl)-3-((2S)-2-hydroxy-3-(8-(5,6,7,8-tetrahydronaphthalen-2-ylsulfonyl)-1-oxa-8-azaspiro[4.5]decan-3-ylamino)propoxy)benzenesulfonamide]
10.2 | CNS(=O)(=O)c1cccc(OC[C@@H](O)CNC2COC3(CCN(S(=O)(=O)c4cccc(Cl)c4F)CC3)C2)c1 (stereo partly drawn) [Compound 139, 3-((2S)-3-(8-(3-chloro-2-fluorophenylsulfonyl)-1-oxa-8-azaspiro[4.5]decan-3-ylamino)-2-hydroxypropoxy)-N-methylbenzenesulfonamide]
106 | CNS(=O)(=O)c1cccc(OC[C@@H](O)CNC2COC3(CCN(S(=O)(=O)c4ccc(C(=O)N(C)C)cc4)CC3)C2)c1 (stereo partly drawn) [Compound 24, 4-(3-((S)-2-hydroxy-3-(3-(N-methylsulfamoyl)phenoxy)propylamino)-1-oxa-8-azaspiro[4.5]decan-8-ylsulfonyl)-N,N-dimethylbenzamide]
15.5 | CN(C)S(=O)(=O)c1cccc(OC[C@@H](O)CNC2COC3(CCN(S(=O)(=O)c4cccc(-c5ccc(CN)cc5)c4)CC3)C2)c1 (stereo partly drawn) [Compound 273, 3-((2S)-3-(8-(4′-(aminomethyl)biphenyl-3-ylsulfonyl)-1-oxa-8-azaspiro[4.5]decan-3-ylamino)-2-hydroxypropoxy)-N,N-dimethylbenzenesulfonamide]
7.15 | CNS(=O)(=O)c1cccc(OC[C@@H](O)CNC2COC3(CCN(S(=O)(=O)c4cccc(-c5ccc(CN)cc5)c4)CC3)C2)c1 (stereo partly drawn) [Compound 79, 3-((2S)-3-(8-(4′-(aminomethyl)biphenyl-3-ylsulfonyl)-1-oxa-8-azaspiro[4.5]decan-3-ylamino)-2-hydroxypropoxy)-N-methylbenzenesulfonamide]
18.9 | CNS(=O)(=O)c1cccc(OC[C@@H](O)CNC2COC3(CCN(S(=O)(=O)c4ccccc4Cl)CC3)C2)c1 (stereo partly drawn) [Compound 35, 3-((2S)-3-(8-(2-chlorophenylsulfonyl)-1-oxa-8-azaspiro[4.5]decan-3-ylamino)-2-hydroxypropoxy)-N-methylbenzenesulfonamide]
3370 | CN(C)CCCNS(=O)(=O)c1cccc(OC[C@@H](O)CNC2COC3(CCN(S(=O)(=O)c4cccc(Cl)c4)CC3)C2)c1 (stereo partly drawn) [Compound 307, 3-((2S)-3-(8-(3-chlorophenylsulfonyl)-1-oxa-8-azaspiro[4.5]decan-3-ylamino)-2-hydroxypropoxy)-N-(3-(dimethylamino)propyl)benzenesulfonamide]
17.1 | CNS(=O)(=O)c1cccc(OC[C@@H](O)CNC2COC3(CCN(S(=O)(=O)c4cccc(Cl)c4C)CC3)C2)c1 (stereo partly drawn) [Compound 143, 3-((2S)-3-(8-(3-chloro-2-methylphenylsulfonyl)-1-oxa-8-azaspiro[4.5]decan-3-ylamino)-2-hydroxypropoxy)-N-methylbenzenesulfonamide]
20.4 | CCn1cnc2cc(S(=O)(=O)N3CCC4(CC3)C[C@@H](NC[C@H](O)COc3cccc(S(=O)(=O)NC)c3)CO4)cnc21 [Compound 511, 3-((S)-3-((R)-8-(3-ethyl-3H-imidazo[4,5-b]pyridin-6-ylsulfonyl)-1-oxa-8-azaspiro[4.5]decan-3-ylamino)-2-hydroxypropoxy)-N-methylbenzenesulfonamide]
12.3 | CNS(=O)(=O)c1cccc(OC[C@@H](O)CN[C@@H]2COC3(CCN(S(=O)(=O)c4cc(C)ccc4F)CC3)C2)c1 [Compound 268, 3-((S)-3-((S)-8-(2-fluoro-5-methylphenylsulfonyl)-1-oxa-8-azaspiro[4.5]decan-3-ylamino)-2-hydroxypropoxy)-N-methylbenzenesulfonamide]
40.5 | Cc1ccc(F)c(S(=O)(=O)N2CCC3(CC2)CC(NC[C@H](O)COc2cccc(S(=O)(=O)N(C)C)c2)CO3)c1 (stereo partly drawn) [Compound 248, 3-((2S)-3-(8-(2-fluoro-5-methylphenylsulfonyl)-1-oxa-8-azaspiro[4.5]decan-3-ylamino)-2-hydroxypropoxy)-N,N-dimethylbenzenesulfonamide]
38.6 | CCN1CCOc2ccc(S(=O)(=O)N3CCC4(CC3)C[C@@H](NC[C@H](O)COc3cccc(S(=O)(=O)NC)c3)CO4)cc21 [Compound 351, 3-((S)-3-((R)-8-(4-ethyl-3,4-dihydro-2H-benzo[b][1,4]oxazin-6-ylsulfonyl)-1-oxa-8-azaspiro[4.5]decan-3-ylamino)-2-hydroxypropoxy)-N-methylbenzenesulfonamide]
167 | CNS(=O)(=O)c1cccc(OC[C@@H](O)CNC2COC3(CCN(S(=O)(=O)c4cccc(-c5ccc(CNC(=O)CC(=O)O)cc5)c4)CC3)C2)c1 (stereo partly drawn) [Compound 352, 3-((3′-(3-((S)-2-hydroxy-3-(3-(N-methylsulfamoyl)phenoxy)propylamino)-1-oxa-8-azaspiro[4.5]decan-8-ylsulfonyl)biphenyl-4-yl)methylamino)-3-oxopropanoic acid]
389 | CNS(=O)(=O)c1cccc(OC[C@@H](O)CNC2COC3(CCN(S(=O)(=O)c4ccc(-c5nn[nH]n5)cc4)CC3)C2)c1 (stereo partly drawn) [Compound 410, 3-((2S)-3-(8-(4-(2H-tetrazol-5-yl)phenylsulfonyl)-1-oxa-8-azaspiro[4.5]decan-3-ylamino)-2-hydroxypropoxy)-N-methylbenzenesulfonamide]
115 | CNS(=O)(=O)c1cccc(OC[C@@H](O)CNC2COC3(CCN(S(=O)(=O)c4cc(OC)cnc4C)CC3)C2)c1 (stereo partly drawn) [Compound 397, 3-((2S)-2-hydroxy-3-(8-(5-methoxy-2-methylpyridin-3-ylsulfonyl)-1-oxa-8-azaspiro[4.5]decan-3-ylamino)propoxy)-N-methylbenzenesulfonamide]
70.5 | CNS(=O)(=O)c1cccc(OC[C@@H](O)CNC2COC3(CCN(S(=O)(=O)c4cccc(-c5ccc(CNCC(F)(F)F)cc5)c4)CC3)C2)c1 (stereo partly drawn) [Compound 321, 3-((2S)-2-hydroxy-3-(8-(4′-((2,2,2-trifluoroethylamino)methyl)biphenyl-3-ylsulfonyl)-1-oxa-8-azaspiro[4.5]decan-3-ylamino)propoxy)-N-methylbenzenesulfonamide]
74.9 | CCc1nc2cc(S(=O)(=O)N3CCC4(CC3)C[C@@H](NC[C@H](O)COc3cccc(S(=O)(=O)NC)c3)CO4)cnc2[nH]1 [Compound 515, 3-((S)-3-((R)-8-(2-ethyl-3H-imidazo[4,5-b]pyridin-6-ylsulfonyl)-1-oxa-8-azaspiro[4.5]decan-3-ylamino)-2-hydroxypropoxy)-N-methylbenzenesulfonamide]
26.5 | CNS(=O)(=O)c1cccc(OC[C@@H](O)CNC2COC3(CCN(S(=O)(=O)c4cccc(-c5ccn(C)c5)c4)CC3)C2)c1 (stereo partly drawn) [Compound 76, 3-((2S)-2-hydroxy-3-(8-(3-(1-methyl-1H-pyrrol-3-yl)phenylsulfonyl)-1-oxa-8-azaspiro[4.5]decan-3-ylamino)propoxy)-N-methylbenzenesulfonamide]
